Assay results: patent US5641805A, “Topical ophthalmic formulations for treating allergic eye diseases” (Alcon Laboratories, Inc., priority 1995, dated 1997)

What was measured:
[1] = tested on: rat conjunctiva; conditions: 0.1 % strength
Description: This assay indicates whether a topically applied compound effectively prevents or decreases the local allergic response in the conjunctiva. This assay allows an assessment of bioavailability following topical dosing. Briefly, male Sprague Dawley rats (6/group) were passively sensitized by subconjunctival injection of a rat serum containing IgE specific for ovalbumin (OA). Twenty-four hours post sensitization, test compound prepared in saline (0.9% NaCl) or saline vehicle was applied topically onto the sensitized eye. Twenty (20) minutes after dosing, rats were challenged intravenously via the lateral tail vein with 1.0 ml of a solution containing OA (1.0 mg/ml) and Evans Blue dye (2.5 mg/ml). Thirty (30) minutes post antigen challenge, animals were killed, skin was reflected, and the size of the resulting wheal and the intensity of the extravasated dye were determined.

[2] = tested on: Human Conjunctival Tissue Mast Cells; assay: Compound effect on histamine release from human conjunctival tissue mast cells upon anti-human IgE challenge; type: cell-based; conditions: for inhibition of human conjunctival mast cell degranulation: statement on Table 1; for inhibition at 500 µM: * p < 0.05 Dunnett's, isomers not significantly different (p > 0.05 Studentized Range), read-out: Inhibition (%) of in-vitro histamine release, isomer comparison
Description: The inhibitory effects of reported anti-allergic, mast cell stabilizing drugs on mast cells obtained from human conjunctiva (the target cells for topical ophthalmic drug preparations claimed useful in treating allergic conjunctivitis) were tested according to the following experimental method. Human conjunctival tissues obtained from organ/tissue donors were weighed and transferred to petri dishes containing RPMI 1640 culture medium supplemented with heat inactivated fetal bovine serum (20%, v/v), L-glutamine (2 mM), penicillin (100 units/ml), streptomycin (100 μg/ml), amphotericin B (2.5 μg/ml) and HEPES (10 mM) and equilibrated overnight at 37° C. (5% CO2).
Post equilibration, tissues were placed in Tyrode's buffer (in mM: 137 NaCl, 2.7 KCl, 0.35 Na H2 PO4, 1.8 CaCl2, 0.98 MgCl2, 11.9 Na HCO3, 5.5 glucose) containing 0.1% gelatin (TGCM) and incubated with 200 U each of collagenase (Type IV) and hyaluronidase (Type I-S) per gram of tissue for 30 minutes at 37° C. Following enzyme digestion, tissues were washed with an equal volume of TGCM over Nitex® filter cloth (Tetko, Briarcliff Manor, N.Y.). Intact tissues were placed in TGCM for further enzymatic digestions.
The flitrate obtained from each digestion was centrifuged (825 g, 7 minutes) and pelleted cells were resuspended in calcium/magnesium free Tyrode's buffer (TG). Pooled cells from all digestions were centrifuged (825 g, 30 minutes) over a […] Percoll® cushion. Mast cell enriched cell pellets were resuspended and washed in TG buffer. Viability and number of mast cells were determined by vital dye exclusion and toluidine blue 0 staining of the harvested cell suspensions. Mast cell containing preparations were placed in supplemented RPMI 1640 culture medium and allowed to equilibrate at 37° C. prior to challenge with anti-human IgE (goat derived IgG antibody).
Cell suspensions containing 5000 mast cells were added to TGCM containing tubes and challenged with anti-human IgE. The final volume of each reaction tube was 1.0 mL. Tubes were incubated at 37° C. for 15 minutes post challenge. The release reaction was terminated by centrifugation (500 g, 7 minutes). Supernatants were collected and stored (-20° C.) until mediator analyses.
Initially, supernatants were analyzed for histamine content by both the automated fluorimetric method described by Siraganian, "An Automated Continuous Flow System for the Extraction and Fluorometric Analysis of Histamine," Anal. Biochem., Vol. 57, 383-94 (1974), and a commercially available radioimmunoassay (RIA) system (AMAC, Inc., Westbrook, Me.). Results from these assays were positively correlated (r=0.999): therefore, the remainder of histamine analyses were performed by RIA.
Each experiment included an anti-human IgE (plus vehicle) positive release control, a spontaneous/vehicle release and a total histamine release control. Total histamine release was determined by treatment with Triton X-100® (0.1%). The experiments also included a non-specific goat IgG control. Test compounds are administered to the mast cell cultures either 1 or 15 minutes before stimulation with anti-human IgE. Inhibition of histamine release resulting from challenge of drug treated mast cells was determined by direct comparison with histamine release from vehicle treated, anti-IgE challenged mast cells using Dunnett's t-test (Dunnett, "A multiple comparison procedure for comparing treatments with a control, " J. Amer. Stat Assoc., Vol. 50, 1096-1121 (1955)).
Dunnett's t-test, is a statistical test which compares multiple treatment groups with one control group. In the assay described above, histamine released from drug treated mast cells are compared to histamine released from the anti-human IgE plus vehicle treated mast cells which serve as the positive control. Statistically significant inhibition is determined using this procedure. The probability level of 0.05 is accepted as the level of significance in biomedical research. […]

[3] = tested on: mast cells obtained from bronchoalveolar lavage fluid; conditions: 100 μM; cited from earlier work
[4] = tested on: human skin mast cells; conditions: cited from earlier work
[5] = tested on: rodent mast cell; conditions: cited from earlier work
[6] = Homo sapiens, Mast cell, 1 min, treatment 1 min
[7] = Homo sapiens, Mast cell, 0.25 h, treatment 15 min
[8] = Homo sapiens, Mast cell, 0.25 h, treatment 15 min, * p < 0.05 Dunnett's t-test

In the case of `CN(C)CCC=C1c2ccccc2COc2ccc(/C=C\C(=O)O)cc21` [Compound C, (Z)11-(3-Dimethylaminopropylidene)-6,11-dihydrodibenz[b,e]oxepin2-acrylic acid], the “% Change (permeability score)” value [1] was -53%.
`O=C(O)c1cc(=O)c2c(OCC(O)COc3cccc4oc(C(=O)O)cc(=O)c34)cccc2o1` [Cromolyn sodium] showed an inhibition at 10 µM [2, 6] of -0.9%, an inhibition at 30 µM [2, 6] of 0.1% and an inhibition at 100 µM [2, 6] of 1.2%. It also gave an inhibition at 300 µM [2, 6] of -1.8%, an inhibition at 1000 µM [2, 6] of -9.4% and an inhibition at 10 µM [2, 7] of 10.6%. For the same molecule, the inhibition at 30 µM [2, 7] was 1.8%, the inhibition at 100 µM [2, 8] was -1.2% and the inhibition at 300 µM [2, 8] was -6.9%. The inhibition at 1000 µM [2, 8] was -15.4%, the “inhibition of human conjunctival mast cell degranulation” value [2] was “failed to significantly inhibit human conjunctival mast cell degranulation” and the “inhibition of mast cells from bronchoalveolar lavage fluid” value [3] was “inhibited”. For the same molecule, the “inhibition of histamine release from human skin mast cells” value [4] was “not inhibited at all” and the “inhibition of rodent mast cell degranulation” value [5] was “inhibit rodent mast cell degranulation”.
For `CCCc1c2oc(C(=O)O)cc(=O)c2cc2c(=O)cc(C(=O)O)n(CC)c12` [Nedocromil sodium], the inhibition at 0.1 µM [2, 6] was 17.4%, the inhibition at 0.3 µM [2, 6] was 8.8% and the inhibition at 1 µM [2, 6] was 4.8%. The inhibition at 3 µM [2, 6] was 0.8%, the inhibition at 10 µM [2, 6] was -6.5% and the inhibition at 30 µM [2, 6] was -0.9%. For the same molecule, the inhibition at 100 µM [2, 6] was 6.7%, the inhibition at 300 µM [2, 6] was 4% and the inhibition at 1000 µM [2, 6] was -1.1%. The inhibition at 0.1 µM [2, 7] was 8.7%, the inhibition at 0.3 µM [2, 7] was 3.7% and the inhibition at 1 µM [2, 7] was 10.7%. It also gave an inhibition at 3 µM [2, 7] of 13.2%, an inhibition at 10 µM [2, 7] of 9.2% and an inhibition at 30 µM [2, 7] of 15.2%. For the same molecule, the inhibition at 100 µM [2, 8] was 28.2%, the inhibition at 300 µM [2, 8] was 11.3% and the inhibition at 1000 µM [2, 8] was 7.2%. For the same molecule, the “inhibition of human conjunctival mast cell degranulation” value [2] was “failed to significantly inhibit human conjunctival mast cell degranulation”.
For `CN(C)CC/C=C1/c2ccccc2COc2ccc(C(=O)O)cc21` [Compound B, (Z)11-(3-Dimethylaminopropylidene)-6,11-dihydrodibenz[b,e]oxepin2-carboxylic acid], the “% Change (permeability score)” value [1] was -55%.
In the case of `CN(C)CC/C=C1/c2ccccc2COc2ccc(CC(=O)O)cc21` [Compound A (cis), Z-11-(3-dimethylaminopropylidene)-6,11-dihydrodibenz[b,e]oxepin-2-acetic acid], the inhibition at 500 µM [2, 7] was 29.7% and the “inhibition of human conjunctival mast cell degranulation” value [2] was “concentration-dependent inhibition of mast cell degranulation”.
Molecule `CN(C)CC/C=C1/c2ccccc2COc2ccc(CC(=O)O)cc21` [Compound A, 11-(3-dimethylaminopropylidene)-6,11-dihydrodibenz[b,e]oxepin-2-acetic acid] has an inhibition at 30 µM [2, 7] of -3.9%, an inhibition at 100 µM [2, 8] of 13% and an inhibition at 300 µM [2, 8] of 29.6%. The inhibition at 600 µM ([2]; Homo sapiens, Mast cell, 0.25 h, 600 μM, treatment 15 min, * p < 0.05 Dunnett's t-test) was 47.5%, the inhibition at 1000 µM [2, 8] was 66.7% and the inhibition at 2000 µM ([2]; Mast cell, 2000 μM, treatment 15 min before anti-human IgE, * p < 0.05 Dunnett's t-test) was 92.6%.
`CN(C)CC/C=C1\c2ccccc2COc2ccc(CC(=O)O)cc21` [Compound A (trans), E-11-(3-dimethylaminopropylidene)-6,11-dihydrodibenz[b,e]oxepin-2-acetic acid] gave an inhibition at 500 µM [2, 7] of 26.2%.
